Laboratory results published in patent publication US20230183239A1, “ECTONUCLEOTIDE PYROPHOSPHATASE-PHOSPHODIESTERASE 1 (ENPP-1) INHIBITORS AND USES THEREOF” (AbbVie Inc., priority 2017, published 2023).

molecular target: T1, ENPP1 (Homo sapiens, UniProt P22413); experiment: Indirect quantitation of 2',3'-cGAMP hydrolysis (AMP-Glo Assay kit); type: biochemical; details: cGAMP substrate; Ki from IC50 by Cheng-Prusoff; read-out: ENPP1 Inhibition -cGAMP: Ki
T1 sequence (P22413 1-925): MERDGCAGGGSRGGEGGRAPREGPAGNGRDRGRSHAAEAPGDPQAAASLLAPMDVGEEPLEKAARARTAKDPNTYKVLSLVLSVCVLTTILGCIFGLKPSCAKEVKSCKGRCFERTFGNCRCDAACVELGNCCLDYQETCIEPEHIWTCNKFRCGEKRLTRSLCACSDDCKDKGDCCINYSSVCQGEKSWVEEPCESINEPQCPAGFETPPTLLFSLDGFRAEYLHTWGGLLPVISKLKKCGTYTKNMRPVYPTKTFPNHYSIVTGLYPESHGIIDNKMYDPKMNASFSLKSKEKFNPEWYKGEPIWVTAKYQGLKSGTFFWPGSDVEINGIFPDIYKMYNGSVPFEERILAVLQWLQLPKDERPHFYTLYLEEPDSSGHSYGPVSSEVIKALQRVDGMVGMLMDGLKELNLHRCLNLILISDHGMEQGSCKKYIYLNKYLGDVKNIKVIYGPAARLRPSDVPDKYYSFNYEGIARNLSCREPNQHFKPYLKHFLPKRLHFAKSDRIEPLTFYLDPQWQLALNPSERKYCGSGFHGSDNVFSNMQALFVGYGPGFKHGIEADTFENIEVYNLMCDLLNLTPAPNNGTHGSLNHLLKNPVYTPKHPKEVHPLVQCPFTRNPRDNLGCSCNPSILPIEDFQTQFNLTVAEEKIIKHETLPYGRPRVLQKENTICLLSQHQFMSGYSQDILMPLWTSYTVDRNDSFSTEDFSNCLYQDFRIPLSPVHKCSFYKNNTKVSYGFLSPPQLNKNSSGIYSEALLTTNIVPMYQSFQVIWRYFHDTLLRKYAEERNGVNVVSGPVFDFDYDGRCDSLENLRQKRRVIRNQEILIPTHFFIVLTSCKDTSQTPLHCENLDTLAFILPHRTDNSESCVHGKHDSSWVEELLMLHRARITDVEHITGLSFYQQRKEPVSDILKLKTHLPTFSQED

SMILES	Ki [µM]
COc1cc2nc(-c3ccccn3)nc(N3CCC(CCNS(N)(=O)=O)CC3)c2cc1OC [Example 4, N-(2-(1-(6,7-dimethoxy-2-(pyridin-2-yl)quinazolin-4-yl)piperidin-4-yl)ethyl)sulfamide]	> 1
COc1ccc2c(-c3ccc4c(c3)CNCC4)c(C#N)cnc2c1 [Example 276, 7-methoxy-4-(1,2,3,4-tetrahydroisoquinolin-7-yl)quinoline-3-carbonitrile]	> 1
COc1cc2ncnc(N3CCN(C(=O)CN)CC3)c2cc1OC [Example 119, 2-amino-1-(4-(6,7-dimethoxyquinazolin-4-yl)piperazin-1-yl)ethan-1-one]	> 1
NS(=O)(=O)NCCC1CCN(c2ncnc3ccc(OC(F)(F)F)cc23)CC1 [Example 194, N-(2-(1-(6-(trifluoromethoxy)quinazolin-4-yl)piperidin-4-yl)ethyl)sulfamide]	> 1
COc1ccc2c(Oc3ccc4c(c3)CCC(=O)N4)ccnc2c1 [Example 318, 6-((7-methoxyquinolin-4-yl)oxy)-3,4-dihydroquinolin-2(1H)-one]	> 1
COc1cc2ncnc(-c3ccc(S(N)(=O)=O)cc3)c2cc1OC [Example 333, 4-(6,7-dimethoxyquinazolin-4-yl)benzenesulfonamide]	> 1
COc1cc2nccc(N3CCC4(CCNC4=O)CC3)c2cc1OC [Example 187, 8-(6,7-dimethoxyquinolin-4-yl)-2,8-diazaspiro[4.5]decan-1-one]	> 1
COc1cnc2c(-c3ccc(CNS(N)(=O)=O)cc3)ccnc2c1 [Example 369, N-(4-(7-methoxy-1,5-naphthyridin-4-yl)benzyl)sulfamide]	> 1
CCNS(=O)(=O)NCCC1CCN(c2ncnc3cc(OC)c(OC)cc23)CC1 [Example 139, 2-(1-(6,7-dimethoxyquinazolin-4-yl)piperidin-4-yl)ethan-1-amino(N-ethyl)sulfonamide]	> 1
COc1ccc2c(Oc3ccc(NS(N)(=O)=O)cc3)ccnc2c1F [Example 268, N-(4-((8-fluoro-7-methoxyquinolin-4-yl)oxy)phenyl)sulfamide]	> 1
CCOc1ccc(S(=O)(=O)N2CCN(C)CC2)cc1-c1ncnc2cc(OC)c(OC)cc12 [Example 337, 4-(2-ethoxy-5-((4-methylpiperazin-1-yl)sulfonyl)phenyl)-6,7-dimethoxyquinazoline]	> 1
NS(=O)(=O)Nc1ccc(Oc2ccnc3cc(F)ccc23)cc1 [Example 298, N-(4-((7-fluoroquinolin-4-yl)oxy)phenyl)sulfamide]	> 1
NS(=O)(=O)NCCC1CCN(c2ccnc3cc4c(cc23)OCO4)CC1 [Example 215, N-(2-(1-([1,3]dioxolo[4,5-g]quinolin-8-yl)piperidin-4-yl)ethyl)sulfamide]	> 1
COc1cc2nccc(N(C)Cc3ccc(NS(N)(=O)=O)cc3)c2cc1OC [Example 255, N-(4-(((6,7-dimethoxyquinolin-4-yl)(methyl)amino)methyl)phenyl)s ulfamide]	> 1
COc1cc2ncnc(N3CCC(Cn4c(N)nc5ccccc54)CC3)c2cc1OC [Example 252, 1-((1-(6,7-dimethoxyquinazolin-4-yl)piperidin-4-yl)methyl)-1H-benzo[d]imidazol-2-amine]	> 1
COc1cc2ncnc(NCc3ccc(N4CCNS4(=O)=O)cc3)c2cc1OC [Example 228, 2-(4-(((6,7-dimethoxyquinazolin-4-yl)amino)methyl)phenyl)-1,2,5-thiadiazolidine 1,1-dioxide]	> 1
COc1ccc(S(=O)(=O)N2CCN(CCO)CC2)cc1OC [Example 340, 2-(4-((3,4-dimethoxyphenyl)sulfonyl)piperazin-1-yl)ethan-1-ol]	> 1
NS(=O)(=O)NCCC1CCN(c2ncnc3c2CCN(Cc2ccccc2)C3)CC1 [Example 233, N-(2-(1-(7-benzyl-5,6,7,8-tetrahydropyrido[3,4-d]pyrimidin-4-yl)piperidin-4-yl)ethyl)sulfamide]	> 1

The next lines start with the values.

Ki [µM]	SMILES
0.1 to 1	Cn1cc(Br)c2ncnc(N3CCC(CCNS(N)(=O)=O)CC3)c21 [Example 138, N-(2-(1-(7-bromo-5-methyl-SH-pyrrolo[3,2-d]pyrimidin-4-yl)piperidin-4-yl)ethyl)sulfamide]
< 0.1	COc1ccc2c(Oc3ccc(NS(N)(=O)=O)c(OC)c3)ccnc2n1 [Example 421, N-(2-methoxy-4-((7-methoxy-1,8-naphthyridin-4-yl)oxy)phenyl)sulfamide]
> 1	COc1cc2nccc(C(=O)N3CCC(CNS(N)(=O)=O)CC3)c2cc1OC [Example 178, N-((1-(6,7-dimethoxyquinoline-4-carbonyl)piperidin-4-yl)methyl)sulfamide]
> 1	COc1ccc2c(=O)n(Cc3ccc(S(N)(=O)=O)cc3)cnc2c1 [Example 400, 4-((7-methoxy-4-oxoquinazolin-3(4H)-yl)methyl)benzenesulfonamide]
> 1	COc1cc2ncc(Oc3ccc(NS(N)(=O)=O)cc3)nc2cc1OC [Example 280, N-(4-((6,7-dimethoxyquinoxalin-2-yl)oxy)phenyl)sulfamide]
0.1 to 1	COc1ccc2c(-c3ccc(CNS(N)(=O)=O)cc3C)ccnc2c1 [Example 328, N-(4-(7-methoxyquinolin-4-yl)-3-methylbenzyl)sulfamide]
> 1	COc1ccc(-c2cc(N3CCC(CCNS(N)(=O)=O)CC3)ncn2)cc1OC [Example 38, N-(2-(1-(6-(3,4-dimethoxyphenyl)pyrimidin-4-yl)piperidin-4-yl)ethyl)sulfamide]
> 1	NS(=O)(=O)Nc1ccc(Oc2ccnc3[nH]ccc23)cc1 [Example 321, N-(4-((1H-pyrrolo[2,3-b]pyridin-4-yl)oxy)phenyl)sulfamide]
> 1	COc1cc2nccc(NC(C)c3ccc(NS(N)(=O)=O)cc3)c2cc1OC (centres unmarked) [Example 181, N-(4-(1-((6,7-dimethoxyquinolin-4-yl)amino)ethyl)phenyl)sulfamide]
> 1	NS(=O)(=O)NCCC1CCN(C(=O)c2ccccc2)CC1 [Example 50, N-(2-(1-(benzoyl)piperidin-4-yl)ethyl)sulfamide]
> 1	COc1cnc2c(Oc3ccc(NS(N)(=O)=O)cc3)ccnc2c1 [Example 349, N-(4-((7-methoxy-1,5-naphthyridin-4-yl)oxy)phenyl) sulfamide]
< 0.1	COc1cc2ncc(C#N)c(Oc3ccc(S(N)(=O)=O)cc3)c2cc1F [Example 76, 4-((3-cyano-6-fluoro-7-methoxyquinolin-4-yl)oxy)benzenesulfonamide]
< 0.1	COc1ccc2c(Oc3ccc(N(C4CC4)S(N)(=O)=O)cc3)ccnc2c1 [Example 310, N-cyclopropyl-N-(4-((7-methoxyquinolin-4-yl)oxy)phenyl)sulfamide]
< 0.1	COc1cc2ncnc(N3CC=C(c4ccc5c(c4)COB5O)CC3)c2cc1OC [Example 157, 5-(1-(6,7-dimethoxyquinazolin-4-yl)-1,2,3,6-tetrahydropyridin-4-yl)benzo[c][1,2] oxaborol-1(3H)-ol]
0.1 to 1	COc1cc2ncnc(N3CCC(CCNC(N)=O)CC3)c2cc1OC [Example 117, 1-(2-(1-(6,7-dimethoxyquinazolin-4-yl)piperidin-4-yl)ethyl)urea]
< 0.1	COc1ccc2nccc(-c3ccc4c(c3)CN(S(N)(=O)=O)CC4)c2c1 [Example 358, 7-(6-methoxyquinolin-4-yl)-3,4-dihydroisoquinoline-2(1H)-sulfonamide]
0.1 to 1	COc1ccc2c(-c3ccc(CN(C4CC4)S(N)(=O)=O)cc3)ncnc2c1 [Example 324, N-cyclopropyl-N-(4-(7-methoxyquinazolin-4-yl)benzyl)sulfamide]
< 0.1	COc1cc2c(=O)ccn(Cc3ccc(NS(N)(=O)=O)cc3)c2cc1OC [Example 151, N-(4-((6,7-dimethoxy-4-oxoquinolin-1 (4H)-yl)methyl)phenyl) sulfamide]
0.1 to 1	COc1cc2cnn(-c3ccc(CNS(N)(=O)=O)cc3)c2cc1OC [Example 166, N-(4-(5,6-dimethoxy-1H-indazol-1-yl)benzyl)sulfamide]
0.1 to 1	COc1cc2ncnc(N3CCC(CCN(C)C)CC3)c2cc1OC [Example 115, 2-(1-(6,7-dimethoxyquinazolin-4-yl)piperidin-4-yl)-N,N-dimethylethan-1-amine]
0.1 to 1	COc1ccc2c(Oc3ccc(NS(N)(=O)=O)cc3Cl)ccnc2c1 [Example 329, N-(3-chloro-4-((7-methoxyquinolin-4-yl)oxy)phenyl)sulfamide]
< 0.1	COc1ccc2c(Oc3ccc(NS(N)(=O)=O)cc3)ncnc2c1 [Example 322, N-(4-((7-methoxyquinazolin-4-yl)oxy)phenyl)sulfamide]
0.1 to 1	COc1cc2ncnc(N3CCC(CCNC(C)=O)CC3)c2cc1OC [Example 335, N-(2-(1-(6,7-dimethoxyquinazolin-4-yl)piperidin-4-yl)ethyl)acetamide]
